Values quoted from earlier work as cited in PubChem BioAssay AID1259409 (Chemical Carcinogenesis Research Information System (CCRIS), 2018).

Tested on: rodent chemically induced tumor inhibition, incidence and multiplicity
Assay: CCRIS tumor inhibitor studies
Settings: Carcinogen: 2,2'-DIHYDROXY-DI-N-PROPYLNITROSAMINE, 53609-64-6, 13147-25-6, Carcinogen: 2,2'-DIHYDROXY-DI-N-PROPYLNITROSAMINE, 53609-64-6, 13147-25-6, Dose [Inhibitor]: 0, Route [Inhibitor]: ORAL, Species: RAT, Promoter: NONE USED; for tumour outcome (control, treated, inhibition, significance): N-ETHYL-N-HYDROXYETHYLNITROSAMINE, Dose [Carcinogen]: 1000 MG/KG BW DHPN TWICE

## O=P(O)(O)OC1C(OP(=O)(O)O)C(OP(=O)(O)O)C(OP(=O)(O)O)C(OP(=O)(O)O)C1OP(=O)(O)O (stereo not given)
N-ETHYL-N-HYDROXYETHYL- NITROSAMINE, 3,2'-DIMETHYL-4-, N-ETHYL-N-HYDROXYETHYL- NITROSAMINE, 3,2'-DIMETHYL-4-, 2% IN DIET BEGINNING 1 WK POST LAST CARCINOGEN DOSE AND CONTINUING FOR 32 WK (STUDY DURATION: 36 WK), Strain/Sex: F344/MALE, Target Tissue: Type of Lesion: URINARY BLADDER: PAPILLOMA, Dose [Carcinogen]: 1000 MG/KG/ IP DHPN 2X, 1500 MG/KG/ GAV EHEN 2X AND 75 MG/KG SC DMAB 3X GIVEN OVER THE INITIAL 3 WK PERIOD AT 3-4 D INTE
  outcome: 0/14 (0%), 6/12 (50%), p<0.01n
3,2'-DIMETHYL-1,4-, 3,2'-DIMETHYL-1,4-, 1% IN DIET FOR 4 WK BEGINNING 1 D PRIOR TO FIRST CARCINOGEN DOSE (STUDY DURATION: 36 WK), Strain/Sex: F344/MALE, Target Tissue: Type of Lesion: KIDNEY: ADENOMA, 1500 MG/KG EHEN TWICE, 75 MG/KG BW DMAB 3 TIMES, SEQUENTIALLY OVER 3 WK
  tumour outcome (control, treated, inhibition, significance): 6/10 (60%), 6/14 (43%), 28%, not significant
3,2'-DIMETHYL-1,4-, 3,2'-DIMETHYL-1,4-, 1% IN DIET FOR 4 WK BEGINNING 1 D PRIOR TO FIRST CARCINOGEN DOSE (STUDY DURATION: 36 WK), Strain/Sex: F344/MALE, Target Tissue: Type of Lesion: LUNG: ADENOMA, 1500 MG/KG EHEN TWICE, 75 MG/KG BW DMAB 3 TIMES, SEQUENTIALLY OVER 3 WK
  tumour outcome (control, treated, inhibition, significance): 5/10 (50%), 9/14 (64%), -28%, not significant
3,2'-DIMETHYL-4-AMINO-, 3,2'-DIMETHYL-4-AMINO-, 2% IN DIET FOR 32 WK BEGINNING 1 WK POST CARCINOGEN TREATMENT (STUDY DURATION: 36 WK0, Strain/Sex: F344/MALE, Target Tissue: Type of Lesion: KIDNEY: NEPHROBLASTOMA, 1500 MG/KG BW EHEN TWICE, 75 MG/KG BW 3 TIMES ADMINISTERED OVER FIRST 3 WK
  tumour outcome (control, treated, inhibition, significance): 2/14 (14%), 3/12 (25%), -79%, not significant
3,2'-DIMETHYL-4-AMINO-, 3,2'-DIMETHYL-4-AMINO-, 2% IN DIET FOR 32 WK BEGINNING 1 WK POST CARCINOGEN TREATMENT (STUDY DURATION: 36 WK), Strain/Sex: F244/MALE, Target Tissue: Type of Lesion: THYROID GLAND: CARCINOMA, 1500 MG/KG BW EHEN TWICE, 75 MG/KG BW 3 TIMES ADMINISTERED OVER FIRST 3 WK
  tumour outcome (control, treated, inhibition, significance): 3/14 (21%), 2/12 (17%), 19%, not significant
3,2'-DIMETHYL-4-AMINO-, 3,2'-DIMETHYL-4-AMINO-, 2% IN DIET FOR 32 WK BEGINNING 1 WK POST CARCINOGEN TREATMENT (STUDY DURATION: 36 WK), Strain/Sex: F344/MALE, Target Tissue: Type of Lesion: KIDNEY: ADENOMA, 1500 MG/KG BW EHEN TWICE, 75 MG/KG BW 3 TIMES ADMINISTERED OVER FIRST 3 WK
  tumour outcome (control, treated, inhibition, significance): 6/14 (43%), 7/12 (58%), -35%, not significant
3,2'-DIMETHYL-4-AMINO-, 3,2'-DIMETHYL-4-AMINO-, 2% IN DIET FOR 32 WK BEGINNING 1 WK POST CARCINOGEN TREATMENT (STUDY DURATION: 36 WK), Strain/Sex: F344/MALE, Target Tissue: Type of Lesion: KIDNEY: TRANSITIONAL CELL CARCINOMA, 1500 MG/KG BW EHEN TWICE, 75 MG/KG BW 3 TIMES ADMINISTERED OVER FIRST 3 WK
  tumour outcome (control, treated, inhibition, significance): 1/14 (7%), 2/12 (17%), -143%, not significant
3,2'-DIMETHYL-4-AMINO-, 3,2'-DIMETHYL-4-AMINO-, 2% IN DIET FOR 32 WK BEGINNING 1 WK POST CARCINOGEN TREATMENT (STUDY DURATION: 36 WK), Strain/Sex: F344/MALE, Target Tissue: Type of Lesion: LARGE INTESTINE: CARCINOMA, 1500 MG/KG BW EHEN TWICE, 75 MG/KG BW 3 TIMES ADMINISTERED OVER FIRST 3 WK
  tumour outcome (control, treated, inhibition, significance): 3/14 (21%), 4/12 (33%), -57%, not significant
3,2'-DIMETHYL-4-AMINO-, 3,2'-DIMETHYL-4-AMINO-, 2% IN DIET FOR 32 WK BEGINNING 1 WK POST CARCINOGEN TREATMENT (STUDY DURATION: 36 WK), Strain/Sex: F344/MALE, Target Tissue: Type of Lesion: LIVER: HEPATOCELLULAR CARCINOMA, 15OO MG/KG BW EHEN TWICE, 75 MG/KG BW 3 TIMES ADMINISTERED OVER FIRST 3 WK
  tumour outcome (control, treated, inhibition, significance): 6/14 (43%), 1/12 (8%), 81%, not significant
3,2'-DIMETHYL-4-AMINO-, 3,2'-DIMETHYL-4-AMINO-, 2% IN DIET FOR 32 WK BEGINNING 1 WK POST CARCINOGEN TREATMENT (STUDY DURATION: 36 WK), Strain/Sex: F344/MALE, Target Tissue: Type of Lesion: LUNG: ADENOMA, 1500 MG/KG BW EHEN TWICE, 75 MG/KG BW 3 TIMES ADMINISTERED OVER FIRST 3 WK
  tumour outcome (control, treated, inhibition, significance): 7/14 (50%), 9/12 (75%), -50%, not significant
